Laboratory results taken from patent US20110021565A1, “PIPERIDINE DERIVATIVES AS NK3 ANTAGONISTS” (priority 2007, published 2011).
Like-named read-outs stand apart in the source and are kept apart here.

Target: T1, recombinant human NK3 receptor (Homo sapiens, UniProt P29371)
T1 construct: expressed in transfected cells; host or cells: HEK293 cells, transient expression; membrane preparation
T1 sequence (P29371 1-465): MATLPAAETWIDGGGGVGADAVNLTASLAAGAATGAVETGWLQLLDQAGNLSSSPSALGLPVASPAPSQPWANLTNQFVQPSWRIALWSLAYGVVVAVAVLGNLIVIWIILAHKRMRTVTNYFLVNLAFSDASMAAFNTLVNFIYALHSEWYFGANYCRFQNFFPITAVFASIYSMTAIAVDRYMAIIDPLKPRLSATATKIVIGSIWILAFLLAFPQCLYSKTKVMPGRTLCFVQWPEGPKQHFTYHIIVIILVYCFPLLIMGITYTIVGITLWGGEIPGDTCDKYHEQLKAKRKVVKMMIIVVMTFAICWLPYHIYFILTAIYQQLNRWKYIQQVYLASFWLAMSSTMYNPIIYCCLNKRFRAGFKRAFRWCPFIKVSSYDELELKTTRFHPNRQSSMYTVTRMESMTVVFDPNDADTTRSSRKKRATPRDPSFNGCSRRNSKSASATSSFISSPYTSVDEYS
Test: [3H]SR142801 competition binding assay
In short: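 Ki derived by Cheng-Prusoff from Hill-fitted IC50 curves, duplicates, 10 μM SB222200 defining nonspecific binding. Radioligand used at KD concentration against compound at 0.0003-10 μM; transiently transfected HEK293 membranes, 5 μg/well, 75 min room temperature, Tris-HCl/MnCl2/phosphoramidon/BSA pH 7.4. Filter-bound counts read by scintillation.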

[1] = [3H]SR142801, membranes of HEK293 cells transiently expressing recombinant human NK3 receptor, read-out: hNK3 Ki
[2] = representative compounds, [3H]SR142801, HEK293 membranes, human NK3 receptor, read-out: Ki NK3 h

SMILES	Ki [1]	Ki [2]
CC(=O)N(C)C1CCN(CCC(C)(C(=O)N(C)Cc2ccc(Cl)c(C(F)(F)F)c2)c2ccc(Cl)c(Cl)c2)CC1 (centres unmarked) [Example 103, 4-[4-(Acetyl-methyl-amino)-piperidin-1-yl]-N-(4-chloro-3-trifluoromethyl-benzyl)-2-(3,4-dichloro-phenyl)-2,N-dimethyl-butyramide]	2.2 nM	2.2 nM
CC(=O)N(C)C1CCN(CCC(C)(C(=O)N(C)Cc2ccc(F)c(C(F)(F)F)c2)c2ccc(Cl)c(Cl)c2)CC1 (centres unmarked) [Example 104, 4-[4-(Acetyl-methyl-amino)-piperidin-1-yl]-2-(3,4-dichloro-phenyl)-N-(4-fluoro-3-trifluoromethyl-benzyl)-2,N-dimethyl-butyramide]	2.3 nM	2.3 nM
CC(=O)N(C)C1CCN(CCC(C)(C(=O)N(C)Cc2cccc(Cl)c2)c2ccc(Cl)c(Cl)c2)CC1 (centres unmarked) [Example 105, 4-[4-(Acetyl-methyl-amino)-piperidin-1-yl]-N-(3-chloro-benzyl)-2-(3,4-dichloro-phenyl)-2,N-dimethyl-butyramide]	8.7 nM	8.7 nM
CC(=O)N(C)C1CCN(CCC(C)(C(=O)N(C)Cc2ccc(C(F)(F)F)cc2)c2ccc(Cl)c(Cl)c2)CC1 (centres unmarked) [Example 106, 4-[4-(Acetyl-methyl-amino)-piperidin-1-yl]-2-(3,4-dichloro-phenyl)-2,N-dimethyl-N-(4-trifluoromethyl-benzyl)-butyramide]	5.1 nM	5.1 nM
CC(=O)N(C)C1CCN(CCC(C)(C(=O)N(C)Cc2ccc(C)cc2)c2ccc(Cl)c(Cl)c2)CC1 (centres unmarked) [Example 107, 4-[4-(Acetyl-methyl-amino)-piperidin-1-yl]-2-(3,4-dichloro-phenyl)-2,N-dimethyl-N-(4-methyl-benzyl)-butyramide]	10.6 nM	–
CC(=O)N(C)C1CCN(CCC(C)(C(=O)N(C)Cc2ccccc2Cl)c2ccc(Cl)c(Cl)c2)CC1 (centres unmarked) [Example 108, 4-[4-(Acetyl-methyl-amino)-piperidin-1-yl]-N-(2-chloro-benzyl)-2-(3,4-dichloro-phenyl)-2,N-dimethyl-butyramide]	12 nM	–
CN(Cc1ccc(Cl)cc1)C(=O)C(CCN1CCC(N2CCCC2=O)CC1)c1ccc(F)cc1 (centres unmarked) [Example 111, N-(4-Chloro-benzyl)-2-(4-fluoro-phenyl)-N-methyl-4-[4-(2-oxo-pyrrolidin-1-yl)-piperidin-1-yl]-butyramide]	408 nM	–
CN(Cc1ccc(Cl)cc1)C(=O)C(CCN1CCC(N2CCCC2=O)CC1)c1ccc(Cl)cc1Cl (centres unmarked) [Example 112, N-(4-Chloro-benzyl)-2-(2,4-dichloro-phenyl)-N-methyl-4-[4-(2-oxo-pyrrolidin-1-yl)-piperidin-1-yl]-butyramide]	128 nM	–
COc1ccc(C(CCN2CCC(N3CCCC3=O)CC2)C(=O)N(C)Cc2ccc(Cl)cc2)cc1 (centres unmarked) [Example 113, N-(4-Chloro-benzyl)-2-(4-methoxy-phenyl)-N-methyl-4-[4-(2-oxo-pyrrolidin-1-yl)-piperidin-1-yl]-butyramide]	775 nM	–
CN(Cc1ccc(Cl)cc1)C(=O)C(CCN1CCC(N2CCCC2=O)CC1)c1ccccc1 (centres unmarked) [Example 114, N-(4-Chloro-benzyl)-N-methyl-4-[4-(2-oxo-pyrrolidin-1-yl)-piperidin-1-yl]-2-phenyl-butyramide]	560 nM	–
CN(Cc1ccc(Cl)cc1)C(=O)C(CCN1CCC(N2CCCC2=O)CC1)c1ccc(Cl)c(Cl)c1 (centres unmarked) [Example 115, N-(4-Chloro-benzyl)-2-(3,4-dichloro-phenyl)-N-methyl-4-[4-(2-oxo-pyrrolidin-1-yl)-piperidin-1-yl]-butyramide]	8.1 nM	8.1 nM
CN(Cc1ccc(Cl)cc1)C(=O)C(CCN1CCC(N2CCCC2=O)CC1)c1ccc(F)c(F)c1 (centres unmarked) [Example 116, N-(4-Chloro-benzyl)-2-(3,4-difluoro-phenyl)-N-methyl-4-[4-(2-oxo-pyrrolidin-1-yl)-piperidin-1-yl]-butyramide]	198 nM	–
CN(Cc1ccc(Cl)cc1)C(=O)C(CCN1CCC(N2CCCC2=O)CC1)c1ccc(Cl)nc1 (centres unmarked) [Example 117, N-(4-Chloro-benzyl)-2-(6-chloro-pyridin-3-yl)-N-methyl-4-[4-(2-oxo-pyrrolidin-1-yl)-piperidin-1-yl]-butyramide]	387 nM	–
CC(NC(=O)C(C)(CCN1CCC(N2CCCC2=O)CC1)c1ccc(Cl)c(Cl)c1)c1ccc(F)c(C(F)(F)F)c1 (centres unmarked) [Example 125, 2-(3,4-Dichloro-phenyl)-N-[1-(4-fluoro-3-trifluoromethyl-phenyl)-ethyl]-2-methyl-4-[4-(2-oxo-pyrrolidin-1-yl)-piperidin-1-yl]-butyramide]	25.4 nM	–
CC(c1ccc(F)c(C(F)(F)F)c1)N(C)C(=O)C(C)(CCN1CCC(N2CCCC2=O)CC1)c1ccc(Cl)c(Cl)c1 (centres unmarked) [Example 126, 2-(3,4-Dichloro-phenyl)-N-[1-(4-fluoro-3-trifluoromethyl-phenyl)-ethyl]-2,N-dimethyl-4-[4-(2-oxo-pyrrolidin-1-yl)-piperidin-1-yl]-butyramide]	30.3 nM	–
CC[C@H](NC(=O)C(C)(CCN1CCC(N2CCCC2=O)CC1)c1ccc(Cl)c(Cl)c1)c1ccccc1 (stereo partly drawn) [Example 127, 2-(3,4-Dichloro-phenyl)-2-methyl-4-[4-(2-oxo-pyrrolidin-1-yl)-piperidin-1-yl]-N-((S)-1-phenyl-propyl)-butyramide]	5.2 nM	5.2 nM
CC[C@@H](NC(=O)C(C)(CCN1CCC(N2CCCC2=O)CC1)c1ccc(Cl)c(Cl)c1)c1ccccc1 (stereo partly drawn) [Example 128, 2-(3,4-Dichloro-phenyl)-2-methyl-4-[4-(2-oxo-pyrrolidin-1-yl)-piperidin-1-yl]-N-((R)-1-phenyl-propyl)-butyramide]	90.2 nM	–
CC(CCN1CCC(N2CCCC2=O)CC1)(C(=O)NCc1ccc(F)c(C(F)(F)F)c1)c1ccc(Cl)c(Cl)c1 (centres unmarked) [Example 131, 2-(3,4-Dichloro-phenyl)-N-(4-fluoro-3-trifluoromethyl-benzyl)-2-methyl-4-[4-(2-oxo-pyrrolidin-1-yl)-piperidin-1-yl]-butyramide]	3.4 nM	3.4 nM
CC(=O)N(C)C1CCN(CCC(C)(C(=O)NC(C)c2ccc(F)c(C(F)(F)F)c2)c2ccc(Cl)c(Cl)c2)CC1 (centres unmarked) [Example 132, 4-[4-(Acetyl-methyl-amino)-piperidin-1-yl]-2-(3,4-dichloro-phenyl)-N-[1-(4-fluoro-3-trifluoromethyl-phenyl)-ethyl]-2-methyl-butyramide]	46.2 nM	–
CC(=O)N(C)C1CCN(CCC(C)(C(=O)N[C@H](CO)c2ccccc2)c2ccc(Cl)c(Cl)c2)CC1 (stereo partly drawn) [Example 133, 4-[4-(Acetyl-methyl-amino)-piperidin-1-yl]-2-(3,4-dichloro-phenyl)-N-((S)-2-hydroxy-1-phenyl-ethyl)-2-methyl-butyramide]	526 nM	–
CC(=O)N(C)C1CCN(CCC(C)(C(=O)N[C@@H](CO)c2ccccc2)c2ccc(Cl)c(Cl)c2)CC1 (stereo partly drawn) [Example 134, 4-[4-(Acetyl-methyl-amino)-piperidin-1-yl]-2-(3,4-dichloro-phenyl)-N-((R)-2-hydroxy-1-phenyl-ethyl)-2-methyl-butyramide]	35.6 nM	–
CC(=O)N(C)C1CCN(CCC(C)(C(=O)NC(c2ccc(F)cc2)C(F)(F)F)c2ccc(Cl)c(Cl)c2)CC1 (centres unmarked) [Example 135, 4-[4-(Acetyl-methyl-amino)-piperidin-1-yl]-2-(3,4-dichloro-phenyl)-2-methyl-N-[2,2,2-trifluoro-1-(4-fluoro-phenyl)-ethyl]-butyramide]	12.6 nM	–
CC(=O)N(C)C1CCN(CCC(C)(C(=O)N[C@@H](CO)c2ccc(Cl)cc2)c2ccc(Cl)c(Cl)c2)CC1 (stereo partly drawn) [Example 136, 4-[4-(Acetyl-methyl-amino)-piperidin-1-yl]-N-[1-(4-chloro-phenyl)-2-hydroxy-ethyl]-2-(3,4-dichloro-phenyl)-2-methyl-butyramide (diastereosisomer 1)]	9.6 nM	9.6 nM
CC(=O)N(C)C1CCN(CCC(C)(C(=O)N[C@H](CO)c2ccc(Cl)cc2)c2ccc(Cl)c(Cl)c2)CC1 (stereo partly drawn) [Example 137, 4-[4-(Acetyl-methyl-amino)-piperidin-1-yl]-N-[1-(4-chloro-phenyl)-2-hydroxy-ethyl]-2-(3,4-dichloro-phenyl)-2-methyl-butyramide (diastereosisomer 2)]	56 nM	–
COCCN(C(C)=O)C1CCN(CCC(C)(C(=O)N[C@@H](CO)c2ccc(Cl)c(Cl)c2)c2ccc(Cl)c(Cl)c2)CC1 (stereo partly drawn) [Example 148, 4-{4-[Acetyl-(2-methoxy-ethyl)-amino]-piperidin-1-yl}-2-(3,4-dichloro-phenyl)-N-[1-(3,4-dichloro-phenyl)-2-hydroxy-ethyl]-2-methyl-butyramide (diastreoisomer 1)]	3.8 nM	3.8 nM
COCCN(C(C)=O)C1CCN(CCC(C)(C(=O)N[C@H](CO)c2ccc(Cl)c(Cl)c2)c2ccc(Cl)c(Cl)c2)CC1 (stereo partly drawn) [Example 149, 4-{4-[Acetyl-(2-methoxy-ethyl)-amino]-piperidin-1-yl}-2-(3,4-dichloro-phenyl)-N-[(S)-1-(3,4-dichloro-phenyl)-2-hydroxy-ethyl]-2-methyl-butyramide (diastreoisomer 2)]	19.4 nM	–
